Source: article doi:10.1101/2024.09.27.615266v1 (biorxiv, 2024)
One block for each molecule: values may come before it.

Experiments:
[1] = biological target: T1, CYP2A6 (commercial, Vivid kit Baculosomes) (Homo sapiens, UniProt P11509); assay: fluorescent 3-cyano coumarin turnover, Morrison tight-binding fit; type: biochemical
T1 sequence (P11509 1-494): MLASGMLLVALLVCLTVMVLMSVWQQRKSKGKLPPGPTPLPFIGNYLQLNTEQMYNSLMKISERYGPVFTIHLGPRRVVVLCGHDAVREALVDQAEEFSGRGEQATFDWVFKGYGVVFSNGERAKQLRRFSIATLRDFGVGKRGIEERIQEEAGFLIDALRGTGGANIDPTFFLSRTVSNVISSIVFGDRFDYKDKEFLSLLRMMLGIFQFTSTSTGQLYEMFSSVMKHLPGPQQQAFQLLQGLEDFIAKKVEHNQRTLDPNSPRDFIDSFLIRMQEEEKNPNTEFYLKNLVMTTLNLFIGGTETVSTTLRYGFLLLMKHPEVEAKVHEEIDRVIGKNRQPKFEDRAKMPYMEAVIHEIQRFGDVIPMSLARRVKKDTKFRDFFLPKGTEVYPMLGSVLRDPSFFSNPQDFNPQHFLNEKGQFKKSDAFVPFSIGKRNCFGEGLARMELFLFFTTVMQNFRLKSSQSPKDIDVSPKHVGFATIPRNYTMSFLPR

purified protein = substrate: N#Cc1cc2ccccc2oc1=O; assay: purified protein; type: biochemical, Homo sapiens; conditions: 10 nM CYP2A6, 30 μM NADPH, 0.25-32 μM substrate

Ki [1]: 208 ± 35.4 µM
Molecule: CCCCCC(O)/C=C/C=O (centres unmarked) [HNE]

B1: CYP2A6 (commercial, Vivid kit Baculosomes) (Homo sapiens) (protein)
chain: T1 sequence (P11509 1-494)
Km (purified protein): 12 ± 6 µM
